The values that follow come from ChEMBL document CHEMBL1127540, “Three-dimensional pharmacophores from binding data” (J Med Chem, 1994).

Structures are written as SMILES. Starred links: 1 amine or outer side, 2 acyl side, 3 side chain; linkers in the order of their positions; H or OH if unused. Non-standard residues stand in square brackets, D forms with d. Residues, ends and D or L forms follow the SMILES beside them. Hexanoyl(5S-NH,4S-OH,6-Ph) = O=C(CC[C@H](O)[C@H](Cc1ccccc1)N[*:1])[*:2]; X2 = CC(C)C[C@H](N[*:1])[C@@H](O)CN1CCC[C@@H]1C(=O)[*:2]; X6 = O=C(CC[C@@H](O)[C@H](Cc1ccccc1)N[*:1])[*:2]; X9 = O=C(CP(=O)(O)[C@H](Cc1ccccc1)N[*:1])[*:2]

The target in this experiment is Human immunodeficiency virus type 1 protease (Human immunodeficiency virus 1, UniProt Q72874). The experiment can be described thus: Binding affinity to HIV-1 protease.
As for `CC[C@H](C)[C@H](NC(=O)[C@H]1CCCN1C[C@H](O)[C@H](CC(C)C)NC(=O)[C@H](CC(N)=O)NC(=O)[C@H](CC(C)C)NC(C)=O)C(=O)N[C@H](C(=O)OC)C(C)C` (Ac-LN[X2]IV-OMe), the Ki (usually the equilibrium dissociation constant of an inhibitor or competing ligand from its target) is 20.9 nM. Compound `COC(=O)[C@@H](NC(=O)[C@@H](NC(=O)CP(=O)(O)[C@H](Cc1ccccc1)NC(=O)[C@H](C)NC(=O)[C@H](C)NC(=O)[C@@H](N)CO)C(C)C)C(C)C` (H-SAA[X9]VV-OMe) gave a Ki of 4470 nM.

Turning to `CC[C@H](C)[C@H](NC(=O)[C@H](Cc1ccccc1)NC(=O)C[C@H](O)[C@H](Cc1ccccc1)NC(=O)OC(C)(C)C)C(=O)N[C@@H](Cc1ccccc1)C(=O)OC`, affinity was put at a Ki of 0.603 nM. Compared with the last compound, the Ki is about 7400-fold lower. The figure for `COC(=O)[C@@H](NC(=O)[C@@H](NC(=O)CC[C@H](O)[C@H](Cc1ccccc1)NC(=O)[C@H](C)NC(=O)[C@H](C)NC(=O)[C@@H](N)CO)C(C)C)C(C)C` (H-SAA[Hexanoyl(5S-NH,4S-OH,6-Ph)]VV-OMe) is 61.7 nM; for `CC[C@H](C)[C@H](NC(=O)[C@@H]1CCCN1C[C@@H](CC(=O)[C@H](CC(N)=O)NC(=O)[C@H](CCC(N)=O)NC(=O)[C@H](CO)NC(=O)[C@@H](N)C(C)C)Cc1ccccc1)C(=O)N[C@H](C(=O)O)C(C)C` it is 3550 nM; for `CC(C)[C@H](NC(=O)CNC(=O)OCc1ccccc1)C(=O)N[C@@H](Cc1ccccc1)C(=O)C(F)(F)CCc1ccccc1` it is 1 nM. On to `COC(=O)[C@@H](NC(=O)[C@@H](NC(=O)CC[C@@H](O)[C@H](Cc1ccccc1)NC(=O)[C@H](C)NC(=O)[C@H](C)NC(=O)[C@@H](N)CO)C(C)C)C(C)C` (H-SAA[X6]VV-OMe), for which the affinity, expressed as Ki, was 4900 nM. On to `CC(=O)N[C@@H](CO)C(=O)N[C@@H](CCC(N)=O)C(=O)N[C@@H](CC(N)=O)C(=O)N[C@@H](Cc1ccccc1)CN1CCC[C@@H]1C(=O)N[C@H](C(=O)N[C@H](C(N)=O)C(C)C)C(C)C` (stereo in doubt; 70), for which the Ki is 12900 nM. Turning to `CC(C)(C)OC(=O)N[C@H](Cc1ccccc1)[C@H](O)CC(=O)N[C@@H](CCC(=O)O)C(=O)N[C@@H](Cc1ccccc1)C(=O)O`, the affinity corresponds to a Ki of 3020 nM. This Ki is about 4.3-fold lower than that of the compound before. Consider `CC[C@H](C)[C@H](NC(=O)[C@@H](C[C@H](O)C(CC1CCCCC1)NC(=O)[C@@H](N)C(C)C)C(C)C)C(=O)NCc1ccccn1` (stereo not given in full), for which affinity was put at a Ki of 70.8 nM.
